Measurements taken from ChEMBL document CHEMBL4118225, “Development, Optimization, and Structure-Activity Relationships of Covalent-Reversible JAK3 Inhibitors Based on a Tricyclic Imidazo[5,4- d]pyrrolo[2,3- b]pyridine Scaffold” (J Med Chem, 2018).
Values after ≈ are worked out from the molar mass of the structure shown.

Experiments:
[1] = target: T1, Tyrosine-protein kinase JAK3 (Homo sapiens, UniProt P52333)
T1 sequence (P52333 whole entry): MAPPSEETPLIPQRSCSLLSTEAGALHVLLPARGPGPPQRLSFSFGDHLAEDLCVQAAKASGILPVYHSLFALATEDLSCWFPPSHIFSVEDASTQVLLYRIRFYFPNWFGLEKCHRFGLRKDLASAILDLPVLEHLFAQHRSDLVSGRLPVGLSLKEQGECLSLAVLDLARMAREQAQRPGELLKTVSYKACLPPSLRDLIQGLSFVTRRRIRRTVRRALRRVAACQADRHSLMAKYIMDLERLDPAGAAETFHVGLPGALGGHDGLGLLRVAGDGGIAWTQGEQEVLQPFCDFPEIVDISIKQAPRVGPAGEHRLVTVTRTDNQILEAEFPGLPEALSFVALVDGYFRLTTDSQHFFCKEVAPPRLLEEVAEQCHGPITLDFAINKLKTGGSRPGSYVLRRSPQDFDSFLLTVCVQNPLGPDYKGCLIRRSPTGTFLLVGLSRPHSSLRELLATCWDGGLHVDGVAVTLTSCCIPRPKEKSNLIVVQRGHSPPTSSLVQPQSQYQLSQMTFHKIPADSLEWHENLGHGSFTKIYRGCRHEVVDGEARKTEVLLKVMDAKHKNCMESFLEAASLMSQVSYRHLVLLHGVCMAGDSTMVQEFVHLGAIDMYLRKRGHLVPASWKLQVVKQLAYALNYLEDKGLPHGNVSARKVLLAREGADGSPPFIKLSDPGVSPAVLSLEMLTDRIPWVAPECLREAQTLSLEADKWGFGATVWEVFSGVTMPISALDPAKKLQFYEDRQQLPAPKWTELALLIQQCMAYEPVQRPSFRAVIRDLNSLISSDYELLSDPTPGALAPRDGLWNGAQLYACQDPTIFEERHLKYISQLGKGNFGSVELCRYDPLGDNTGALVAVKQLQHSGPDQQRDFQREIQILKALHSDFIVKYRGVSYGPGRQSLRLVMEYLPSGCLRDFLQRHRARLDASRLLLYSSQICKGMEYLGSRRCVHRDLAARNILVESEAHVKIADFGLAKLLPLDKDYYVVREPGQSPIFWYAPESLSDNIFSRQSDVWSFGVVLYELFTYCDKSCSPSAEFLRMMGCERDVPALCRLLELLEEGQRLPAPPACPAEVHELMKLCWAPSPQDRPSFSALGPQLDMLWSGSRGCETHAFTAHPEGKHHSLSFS
Description: Inhibition of recombinant human JAK3 (781 to 1124 residues) expressed in baculovirus expression system assessed as reduction in polypeptide substrate phosphorylation in presence of ATP by ELISA

[2] = target: Tyrosine-protein kinase BTK (Homo sapiens, UniProt Q06187); assay: Inhibition of kinase tracer-05 binding to C-terminal NanoLuc tagged full length BTK (unknown origin) expressed in HEK cells by NanoBRET assay; type: cell-based
[3] = Metabolic stability in human whole blood assessed as parent compound remaining at 1 uM after 180 mins by LC-MS analysis; type: ADME, tissue-based; settings: read-out: Stability
[4] = Half life in human whole blood at 1 uM by LC-MS analysis; type: ADME, tissue-based
[5] = Metabolic stability in mouse liver microsomes assessed as parent compound remaining at 100 uM after 180 mins in presence of NADPH regenerating system by LC-MS analysis; type: ADME, microsome; settings: read-out: Stability
[6] = Aqueous solubility in pH 7.4 PBS buffer by HPLC analysis; type: physicochemical
[7] = target: Non-receptor tyrosine-protein kinase TYK2 (Homo sapiens, UniProt P29597)
[8] = target: T2, Tyrosine-protein kinase JAK2 (Homo sapiens, UniProt O60674)
Description: Inhibition of human JAK2 using poly[Glu:Tyr] (4:1) as substrate in presence of 10 uM [gamma33P]ATP by radiometric method

[9] = target: T3, Tyrosine-protein kinase JAK1 (Homo sapiens, UniProt P23458)
Description: Inhibition of human JAK1 using poly[Glu:Tyr] (4:1) as substrate in presence of 10 uM [gamma33P]ATP by radiometric method

[10] = target: T1, Tyrosine-protein kinase JAK3; remark: listed apart in the source
[11] = Thiol reactivity in kinase assay buffer in presence of DTT; type: physicochemical
[12] = Aqueous solubility in HEPES buffer; type: physicochemical
[13] = target: T1, Tyrosine-protein kinase JAK3; remark: listed apart in the source
Description: Inhibition of kinase tracer-05 binding to C-terminal NanoLuc tagged full length JAK3 (unknown origin) expressed in HEK cells by NanoBRET assay

[14] = target: T2, Tyrosine-protein kinase JAK2; assay: Inhibition of kinase tracer-05 binding to C-terminal NanoLuc tagged full length JAK2 (unknown origin) expressed in HEK cells by NanoBRET assay; type: cell-based
[15] = target: T3, Tyrosine-protein kinase JAK1; remark: listed apart in the source
Description: Inhibition of kinase tracer-04 binding to C-terminal NanoLuc tagged full length JAK1 (unknown origin) expressed in HEK cells by NanoBRET assay

T3 sequence (P23458 whole entry): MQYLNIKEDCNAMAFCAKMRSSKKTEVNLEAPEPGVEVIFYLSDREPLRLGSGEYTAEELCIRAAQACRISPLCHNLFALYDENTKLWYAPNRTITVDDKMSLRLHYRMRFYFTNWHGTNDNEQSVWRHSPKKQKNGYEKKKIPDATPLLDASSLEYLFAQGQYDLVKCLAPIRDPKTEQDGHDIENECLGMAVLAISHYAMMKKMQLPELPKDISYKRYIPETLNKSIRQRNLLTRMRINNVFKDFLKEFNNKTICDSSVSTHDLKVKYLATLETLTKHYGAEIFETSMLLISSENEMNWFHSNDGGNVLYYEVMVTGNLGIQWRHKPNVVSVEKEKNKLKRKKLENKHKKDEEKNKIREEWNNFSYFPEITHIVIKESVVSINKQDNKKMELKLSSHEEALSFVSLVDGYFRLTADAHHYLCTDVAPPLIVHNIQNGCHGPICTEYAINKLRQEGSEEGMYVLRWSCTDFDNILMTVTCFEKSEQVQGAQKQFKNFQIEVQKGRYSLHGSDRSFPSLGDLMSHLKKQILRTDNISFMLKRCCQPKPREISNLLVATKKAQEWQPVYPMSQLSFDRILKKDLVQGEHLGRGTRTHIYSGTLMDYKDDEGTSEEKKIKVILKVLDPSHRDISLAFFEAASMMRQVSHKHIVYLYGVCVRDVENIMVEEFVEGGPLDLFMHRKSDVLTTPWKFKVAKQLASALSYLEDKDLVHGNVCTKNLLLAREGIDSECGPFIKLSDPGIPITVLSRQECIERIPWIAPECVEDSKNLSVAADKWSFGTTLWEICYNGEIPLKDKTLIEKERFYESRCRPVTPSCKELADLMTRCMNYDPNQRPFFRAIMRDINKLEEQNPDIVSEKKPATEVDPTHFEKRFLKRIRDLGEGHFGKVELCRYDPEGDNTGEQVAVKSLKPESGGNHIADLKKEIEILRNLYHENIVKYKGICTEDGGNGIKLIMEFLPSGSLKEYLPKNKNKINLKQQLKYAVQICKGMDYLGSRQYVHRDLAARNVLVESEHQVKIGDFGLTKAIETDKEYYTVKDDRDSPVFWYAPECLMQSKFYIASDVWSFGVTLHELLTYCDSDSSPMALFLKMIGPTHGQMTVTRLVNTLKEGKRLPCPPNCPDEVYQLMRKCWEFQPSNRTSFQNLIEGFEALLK
Chain of Tyrosine-protein kinase BTK (Q06187 whole entry): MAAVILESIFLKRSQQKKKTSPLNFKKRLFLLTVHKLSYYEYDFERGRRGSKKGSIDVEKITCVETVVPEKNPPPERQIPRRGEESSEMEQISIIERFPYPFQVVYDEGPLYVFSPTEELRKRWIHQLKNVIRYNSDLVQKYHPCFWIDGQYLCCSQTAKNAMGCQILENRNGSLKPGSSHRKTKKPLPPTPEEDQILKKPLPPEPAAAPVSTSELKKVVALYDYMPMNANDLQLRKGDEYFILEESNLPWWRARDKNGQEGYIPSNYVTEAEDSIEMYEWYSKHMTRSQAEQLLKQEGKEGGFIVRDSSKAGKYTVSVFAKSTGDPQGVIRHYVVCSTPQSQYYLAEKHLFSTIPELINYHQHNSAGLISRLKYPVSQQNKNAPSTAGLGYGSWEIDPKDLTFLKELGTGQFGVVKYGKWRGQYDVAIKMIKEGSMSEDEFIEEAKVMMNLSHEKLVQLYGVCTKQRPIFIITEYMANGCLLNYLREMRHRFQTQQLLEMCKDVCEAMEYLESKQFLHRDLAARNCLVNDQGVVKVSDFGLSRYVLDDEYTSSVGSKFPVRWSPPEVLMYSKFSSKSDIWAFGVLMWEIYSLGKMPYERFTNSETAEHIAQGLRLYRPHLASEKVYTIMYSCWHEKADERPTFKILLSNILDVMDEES
T2 sequence (O60674 whole entry): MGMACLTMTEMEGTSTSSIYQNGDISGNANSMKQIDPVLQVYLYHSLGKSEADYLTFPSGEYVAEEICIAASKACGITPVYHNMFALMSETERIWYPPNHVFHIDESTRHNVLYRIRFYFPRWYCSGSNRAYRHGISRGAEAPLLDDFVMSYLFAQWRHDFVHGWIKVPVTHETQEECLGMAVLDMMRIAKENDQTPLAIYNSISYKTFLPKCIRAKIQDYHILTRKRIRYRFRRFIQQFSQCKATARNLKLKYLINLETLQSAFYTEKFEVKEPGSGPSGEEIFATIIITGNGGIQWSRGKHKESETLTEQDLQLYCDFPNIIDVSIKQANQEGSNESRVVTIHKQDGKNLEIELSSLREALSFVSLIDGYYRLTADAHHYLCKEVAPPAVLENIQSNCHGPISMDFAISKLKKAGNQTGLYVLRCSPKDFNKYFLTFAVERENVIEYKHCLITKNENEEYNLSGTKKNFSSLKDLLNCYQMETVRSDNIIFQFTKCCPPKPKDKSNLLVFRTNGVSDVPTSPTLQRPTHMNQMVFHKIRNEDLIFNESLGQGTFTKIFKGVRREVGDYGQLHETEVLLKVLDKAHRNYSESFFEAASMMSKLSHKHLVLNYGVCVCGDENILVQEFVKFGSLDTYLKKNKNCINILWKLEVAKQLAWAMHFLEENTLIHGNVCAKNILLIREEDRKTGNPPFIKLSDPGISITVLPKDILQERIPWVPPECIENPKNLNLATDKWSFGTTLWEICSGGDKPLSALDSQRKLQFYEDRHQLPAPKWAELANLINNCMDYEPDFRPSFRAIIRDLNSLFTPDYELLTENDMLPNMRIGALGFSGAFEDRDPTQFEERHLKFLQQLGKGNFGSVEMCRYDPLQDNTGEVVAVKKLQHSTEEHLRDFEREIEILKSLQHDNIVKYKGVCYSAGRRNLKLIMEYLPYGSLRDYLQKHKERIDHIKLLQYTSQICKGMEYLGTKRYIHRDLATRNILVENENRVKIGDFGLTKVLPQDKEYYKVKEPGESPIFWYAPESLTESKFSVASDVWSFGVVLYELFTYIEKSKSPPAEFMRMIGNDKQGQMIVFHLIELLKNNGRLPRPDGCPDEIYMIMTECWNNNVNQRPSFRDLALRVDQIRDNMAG
Chain of Non-receptor tyrosine-protein kinase TYK2 (P29597 whole entry): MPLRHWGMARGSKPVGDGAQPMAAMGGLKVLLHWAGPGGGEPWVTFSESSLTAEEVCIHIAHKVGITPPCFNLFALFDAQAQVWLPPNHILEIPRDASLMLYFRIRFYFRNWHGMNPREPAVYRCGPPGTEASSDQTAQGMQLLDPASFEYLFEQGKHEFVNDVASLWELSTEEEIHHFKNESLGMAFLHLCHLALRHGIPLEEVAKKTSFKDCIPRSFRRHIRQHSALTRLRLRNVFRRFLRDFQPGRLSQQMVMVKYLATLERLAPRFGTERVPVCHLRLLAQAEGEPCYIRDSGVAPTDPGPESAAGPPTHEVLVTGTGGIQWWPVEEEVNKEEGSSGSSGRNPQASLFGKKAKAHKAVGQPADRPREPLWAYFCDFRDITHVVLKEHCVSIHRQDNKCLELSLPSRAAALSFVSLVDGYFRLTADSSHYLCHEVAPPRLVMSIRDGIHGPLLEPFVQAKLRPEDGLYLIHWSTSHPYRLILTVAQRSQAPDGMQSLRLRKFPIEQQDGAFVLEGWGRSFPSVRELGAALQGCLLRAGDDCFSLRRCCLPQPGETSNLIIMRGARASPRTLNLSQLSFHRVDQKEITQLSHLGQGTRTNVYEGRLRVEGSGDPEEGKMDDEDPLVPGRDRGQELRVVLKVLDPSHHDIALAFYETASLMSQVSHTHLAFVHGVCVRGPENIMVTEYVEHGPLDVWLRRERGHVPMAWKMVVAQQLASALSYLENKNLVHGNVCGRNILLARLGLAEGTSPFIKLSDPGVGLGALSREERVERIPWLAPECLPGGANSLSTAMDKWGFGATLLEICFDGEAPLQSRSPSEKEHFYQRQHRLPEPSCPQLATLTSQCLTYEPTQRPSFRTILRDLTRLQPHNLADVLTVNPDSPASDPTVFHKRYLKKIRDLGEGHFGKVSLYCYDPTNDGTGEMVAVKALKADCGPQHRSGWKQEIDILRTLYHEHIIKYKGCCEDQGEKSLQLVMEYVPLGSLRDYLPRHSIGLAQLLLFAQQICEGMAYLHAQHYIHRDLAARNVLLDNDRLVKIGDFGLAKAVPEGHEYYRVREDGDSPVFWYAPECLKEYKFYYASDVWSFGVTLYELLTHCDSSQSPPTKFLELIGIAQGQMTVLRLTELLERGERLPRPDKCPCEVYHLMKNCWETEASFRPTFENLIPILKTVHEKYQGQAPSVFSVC

**Q.** For N#CCCc1ccc(-c2nc3cnc4[nH]ccc4c3n2C2CCCCC2)cc1, which IC50 [1] is on record?
**A.** 0.436 µM

**Q.** For NC(=O)CCc1cccc(-c2nc3cnc4[nH]ccc4c3n2C2CCCCC2)c1, which IC50 [1] is on record?
**A.** 0.49 µM

**Q.** For N#C/C=C/c1cccc(-c2nc3cnc4[nH]ccc4c3n2C2CCCCC2)c1, which IC50 [1] is on record?
**A.** 0.135 µM

**Q.** What does the source list for CN(C)C(=O)C(C#N)=Cc1ccc(-c2nc3cnc4[nH]ccc4c3n2C2CCCCC2)o1?
**A.** EC50 [2]: > 10 µM; remaining at 3 h, 1 µM [3]: 49.4%; half-life at 1 µM [4]: 3 h; remaining at 3 h, 100 µM [5]: 58%; solubility [6]: 56 µM (≈ 24 µg/mL)

**Q.** Which IC50 [7] does the source give for CN(C)C(=O)CCc1ccc(-c2nc3cnc4[nH]ccc4c3n2C2CCCCC2)o1 here?
**A.** 0.139 µM

**Q.** What about the IC50 [8] of the same compound?
**A.** 0.183 µM

**Q.** What about the IC50 [1] of the same compound?
**A.** 0.181 µM

**Q.** And the IC50 [9]?
**A.** 0.045 µM

**Q.** What about the IC50 [10] of the same compound?
**A.** 0.048 µM

**Q.** For NC(=O)/C=C/c1ccc(-c2nc3cnc4[nH]ccc4c3n2C2CCCCC2)o1, which IC50 [1] is on record?
**A.** 0.129 µM

**Q.** With NC(=O)CCc1ccc(-c2nc3cnc4[nH]ccc4c3n2C2CCCCC2)o1 as the compound, how does the IC50 [1] read?
**A.** 0.059 µM

**Q.** Which Drug metabolism [11] does the source give for N#CC(C#N)=Cc1cccc(-c2nc3cnc4[nH]ccc4c3n2C2CCCCC2)c1 here?
**A.** Metabolite_Detected

**Q.** What about the IC50 [1] of the same compound?
**A.** 0.011 µM

**Q.** Which IC50 [1] does the source give for CN(C)C(=O)CCc1ccc(-c2nc3cnc4[nH]ccc4c3n2C2CCCCC2)cc1 here?
**A.** 0.642 µM

**Q.** For CN(C)C(=O)CCc1cccc(-c2nc3cnc4[nH]ccc4c3n2C2CCCCC2)c1, which IC50 [1] is on record?
**A.** 0.678 µM

**Q.** For CNC(=O)C(C#N)=Cc1ccc(-c2nc3cnc4[nH]ccc4c3n2C2CCCCC2)o1, which IC50 [1] is on record?
**A.** 0.023 µM

**Q.** For CN(C)C(=O)C(C#N)=Cc1cccc(-c2nc3cnc4[nH]ccc4c3n2C2CCCCC2)c1, which IC50 [1] is on record?
**A.** 0.205 µM

**Q.** Which IC50 [1] does the source give for CN(C)C(=O)C(C#N)=Cc1ccc(-c2nc3cnc4[nH]ccc4c3n2C2CCCCC2)cc1 here?
**A.** 0.571 µM

**Q.** For NC(=O)/C=C/c1ccc(-c2nc3cnc4[nH]ccc4c3n2C2CCCCC2)cc1, which solubility [12] is on record?
**A.** Insoluble

**Q.** And the IC50 [1]?
**A.** > 1 µM

**Q.** For N#CCCc1cccc(-c2nc3cnc4[nH]ccc4c3n2C2CCCCC2)c1, which IC50 [1] is on record?
**A.** 0.505 µM

**Q.** Which IC50 [1] does the source give for N#C/C=C/c1ccc(-c2nc3cnc4[nH]ccc4c3n2C2CCCCC2)cc1 here?
**A.** 0.39 µM

**Q.** What does the source list for CC(C)(O)C(=O)N1CCN(c2ccc(C(F)(F)F)c(C3=C(c4c[nH]c5ccccc45)C(=O)NC3=O)c2)CC1?
**A.** IC50 [7]: 2.11 µM; IC50 [9]: 0.344 µM

**Q.** For CN(C)C(=O)C(C#N)=Cc1ccc(-c2nc3cnc4[nH]ccc4c3n2C)o1, which IC50 [1] is on record?
**A.** 0.368 µM

**Q.** What does the source list for CN1CCN(C(=O)C(C#N)=Cc2ccc(-c3nc4cnc5[nH]ccc5c4n3C3CCCCC3)o2)CC1?
**A.** IC50 [7]: 0.791 µM; EC50 [2]: > 10 µM; remaining at 3 h, 1 µM [3]: 47%; half-life at 1 µM [4]: 3 h; EC50 [13]: 0.257 µM; EC50 [14]: > 10 µM; remaining at 3 h, 100 µM [5]: 6.9%; solubility [6]: 248 µM (≈ 120 µg/mL); IC50 [8]: 0.765 µM; EC50 [15]: > 10 µM; IC50 [1]: 0.014 µM; IC50 [9]: 0.117 µM; IC50 [10]: 0.00074 µM

**Q.** With N#CC(C#N)=Cc1ccc(-c2nc3cnc4[nH]ccc4c3n2C2CCCCC2)o1 as the compound, how does the IC50 [7] read?
**A.** 0.014 µM

**Q.** And the EC50 [2]?
**A.** 5.79 µM

**Q.** What about the Drug metabolism [11] of the same compound?
**A.** Metabolite_Detected

**Q.** And the remaining at 3 h, 1 µM [3]?
**A.** 1.5%

**Q.** What about the EC50 [13] of the same compound?
**A.** 0.678 µM

**Q.** What about the EC50 [14] of the same compound?
**A.** 0.63 µM

**Q.** What about the remaining at 3 h, 100 µM [5] of the same compound?
**A.** 11%

**Q.** And the IC50 [8]?
**A.** 0.188 µM

**Q.** And the EC50 [15]?
**A.** 7.66 µM

**Q.** What about the IC50 [1] of the same compound?
**A.** 0.004 µM

**Q.** And the IC50 [9]?
**A.** 0.004 µM

**Q.** And the IC50 [10]?
**A.** 0.00039 µM

**Q.** With N#C/C=C/c1ccc(-c2nc3cnc4[nH]ccc4c3n2C2CCCCC2)o1 as the compound, how does the IC50 [7] read?
**A.** 0.044 µM

**Q.** What about the EC50 [2] of the same compound?
**A.** 13.3 µM

**Q.** What about the remaining at 3 h, 1 µM [3] of the same compound?
**A.** 98.8%

**Q.** What about the EC50 [13] of the same compound?
**A.** 0.74 µM

**Q.** And the EC50 [14]?
**A.** 7.71 µM

**Q.** And the remaining at 3 h, 100 µM [5]?
**A.** 53.9%

**Q.** And the IC50 [8]?
**A.** 0.053 µM

**Q.** And the EC50 [15]?
**A.** > 10 µM

**Q.** And the IC50 [1]?
**A.** 0.027 µM

**Q.** What about the IC50 [9] of the same compound?
**A.** 0.012 µM

**Q.** What about the IC50 [10] of the same compound?
**A.** 0.00021 µM

**Q.** Which Drug metabolism [11] does the source give for N#CC(C#N)=Cc1ccc(-c2nc3cnc4[nH]ccc4c3n2C2CCCCC2)cc1 here?
**A.** Metabolite_Detected

**Q.** And the IC50 [1]?
**A.** 0.03 µM

**Q.** Which IC50 [1] does the source give for NC(=O)CCc1ccc(-c2nc3cnc4[nH]ccc4c3n2C2CCCCC2)cc1 here?
**A.** 0.499 µM

**Q.** Which results are given for N#CCCc1ccc(-c2nc3cnc4[nH]ccc4c3n2C2CCCCC2)o1?
**A.** IC50 [7]: 0.025 µM; IC50 [8]: 0.048 µM; IC50 [1]: 0.129 µM; IC50 [9]: 0.016 µM; IC50 [10]: 0.01 µM

**Q.** Which IC50 [1] does the source give for CN(C)C(=O)C(C#N)=Cc1ccc(-c2nc3cnc4c(ccn4C)c3n2C2CCCCC2)o1 here?
**A.** > 10 µM
